Results on 14 molecules are retold here after patent US5382596A, “Substituted 2-aminotetralins” (priority 1993, dated 1995).

Assay [1] concerns the target adrenergic α2 receptor (Rattus norvegicus, UniProt P22909). As to the kind of experiment: Adrenergic α2 in vitro functional test (rat vas deferens, inhibition of twitch). In kind it is biochemical. As to the method: (§1) Vasa deferentia from male Sprague-Dawley rats weighing between 150-250 g were removed and placed in isolated organ baths containing Krebs-Henseleitsolution under a resting tension of 1 g. All other set up conditions were identical to those used for the mouse was deferens. Tissues were pretreated with propranolol (1 μM), ascorbic acid (100 μM) and the α1 -adrenergic antagonist prazosin (0.3 or 1 μM) for 60 min before the addition of test compound.

The test system of assay [2] is denervated supersensitive postsynaptic dopamine receptors. Kind of assay: In vivo functional test: contralateral circling in rats with unilateral 6-hydroxydopamine lesions of the substantia nigra. The arrangement: species or system rat. The settings on record: contralateral circling, rats, unilateral 6-hydroxydopamine lesion. An excerpt:
Dopamine agonists produce contralateral circling behavior in rats in which unilateral lesions of the substantial nigra are made by prior injection of 6-hydroxydopamine. The circling is thought to be mediated by stimulation of denervated supersensitive postsynaptic dopamine receptors (Marshall and Ungerstedt, 1977, Eur. J. Pharmacol., 41:361-367).

The target in assay [3] is Dopamine D2 receptor (Bos taurus, UniProt P20288). As to the kind of experiment: biochemical. Type of assay: binding, bovine. The note with it: for Ki: bovine caudate membranes, 3H-Spiperone, RT, 75 min, read-out: D2 K1. The procedure: (§2) Membranes were prepared using a Brinkmann Polytron and collected by centrifugation. Membrane sources were bovine caudate (D2,D1) or rat cortex (α2). The membranes were washed, resuspended, and incubated at 37° C. for 30 min. in either the presence (rat cortex) of 1 μ/ml adenosine deaminase or absence (bovine caudate) of 0.1 μ/ml adenosine deaminase. Membranes were centrifuged, washed once and frozen at -70° C. until used. Immediately before use, the membranes were thawed, washed once, and resuspended to a final concentration of 0.5-2 mg/ml. Assays were initiated by addition of membranes. For D2 and D1 assays, the radioligands and conditions used were ^3 H-Spiperone (RT, 75 min.) and ^3 H-SCH23390 (37° C., 15 min.), respectively. For α2 assays, ^3 H-PAC (RT, 30 min.) was used Assays were terminated by filtration using a Brandel cell harvester over Whatman GF/B filters that had been pretreated with 0.1% polyethylenimine. […]

The target of the next assay is Dopamine D1 receptor (Bos taurus, UniProt Q95136). Kind of assay: biochemical. In kind it is binding, bovine. The settings on record: bovine caudate membranes, 3H-SCH23390, 37° C., 15 min; read-out: D1 K1. The procedure: as §2
In assay [4] the target is dopamine D2 receptor (Mus musculus, UniProt P61168). Kind of assay: biochemical. In kind it is biochemical. The note with it: for EC50: concentration that produces 50% of the maximal inhibition of twitch, mouse vas deferens, read-out: D2 A50. As to the method: Vasa deferentia from male BALB/C mice weighing approximately 30 g were removed and placed in isolated organ baths containing magnesium-free modified Krebs-Henseleit solution which was gassed with 95% O2 and 5% CO2 and maintained at 37° C. Tissues were set up under resting tension of 0.5 g and stimulated electrically at 60 volts, 0.1 Hz and 1 msec duration to produce a series of twitch responses. Tissues were pretreated with propranolol (1 μM) to block β-adrenoceptors, idazoxan (3 μM) to block α2 -adrenoceptors receptors, and ascorbic acid (100 μM) for 60 min before the addition of test compound.

The target in assay [5] is T1, adrenergic α2 receptor (Rattus norvegicus, UniProt P22909).
T1 sequence (P22909 1-465): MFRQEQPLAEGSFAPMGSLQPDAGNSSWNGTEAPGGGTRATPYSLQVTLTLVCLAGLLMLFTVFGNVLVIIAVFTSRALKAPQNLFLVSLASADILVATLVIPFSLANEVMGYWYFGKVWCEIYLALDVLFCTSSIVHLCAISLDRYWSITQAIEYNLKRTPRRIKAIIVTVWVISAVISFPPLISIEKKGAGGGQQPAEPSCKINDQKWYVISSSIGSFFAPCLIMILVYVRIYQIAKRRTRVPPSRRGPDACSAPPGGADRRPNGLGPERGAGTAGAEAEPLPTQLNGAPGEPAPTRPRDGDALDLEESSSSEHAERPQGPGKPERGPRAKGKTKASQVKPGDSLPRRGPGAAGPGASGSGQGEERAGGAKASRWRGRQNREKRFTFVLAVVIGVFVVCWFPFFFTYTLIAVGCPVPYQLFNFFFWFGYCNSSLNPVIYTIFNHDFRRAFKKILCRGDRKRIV
As to the kind of experiment: Adrenergic α2 in vitro functional test (rat vas deferens, inhibition of twitch). The settings on record: concentration that produces 50% of the maximal inhibition of twitch; rat vas deferens; read-out: a2 A50. In kind it is biochemical. As to the method: as §1

Where two headings read alike, the source gives them in different places. A value given as a limit tells only on which side of the number the result lay.

Sequence of Dopamine D2 receptor (P20288 whole entry): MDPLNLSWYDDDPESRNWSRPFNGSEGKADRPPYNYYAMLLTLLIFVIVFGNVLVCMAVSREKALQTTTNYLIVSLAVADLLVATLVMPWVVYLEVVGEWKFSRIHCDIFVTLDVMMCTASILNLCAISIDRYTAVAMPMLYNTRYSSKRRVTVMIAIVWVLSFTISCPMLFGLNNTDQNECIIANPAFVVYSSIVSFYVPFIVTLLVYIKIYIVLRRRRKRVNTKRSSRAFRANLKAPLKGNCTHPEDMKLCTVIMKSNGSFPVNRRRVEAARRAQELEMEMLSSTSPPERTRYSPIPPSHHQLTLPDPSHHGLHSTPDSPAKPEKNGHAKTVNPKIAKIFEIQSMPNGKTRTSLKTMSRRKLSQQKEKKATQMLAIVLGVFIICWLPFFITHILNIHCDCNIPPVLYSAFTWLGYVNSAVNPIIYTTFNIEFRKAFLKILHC
Sequence of Dopamine D1 receptor (Q95136 whole entry): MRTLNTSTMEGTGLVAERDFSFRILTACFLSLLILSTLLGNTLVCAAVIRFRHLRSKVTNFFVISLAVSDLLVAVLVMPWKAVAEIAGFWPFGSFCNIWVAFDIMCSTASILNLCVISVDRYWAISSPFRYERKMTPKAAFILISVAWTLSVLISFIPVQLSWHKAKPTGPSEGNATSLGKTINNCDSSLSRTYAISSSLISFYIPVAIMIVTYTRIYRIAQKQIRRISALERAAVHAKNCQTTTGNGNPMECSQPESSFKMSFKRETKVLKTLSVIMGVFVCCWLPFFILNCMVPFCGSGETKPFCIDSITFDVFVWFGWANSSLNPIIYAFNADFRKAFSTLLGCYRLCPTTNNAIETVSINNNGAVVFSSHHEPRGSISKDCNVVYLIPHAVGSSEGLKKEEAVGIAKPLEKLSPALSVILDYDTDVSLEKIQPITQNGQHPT
Sequence of dopamine D2 receptor (P61168 whole entry): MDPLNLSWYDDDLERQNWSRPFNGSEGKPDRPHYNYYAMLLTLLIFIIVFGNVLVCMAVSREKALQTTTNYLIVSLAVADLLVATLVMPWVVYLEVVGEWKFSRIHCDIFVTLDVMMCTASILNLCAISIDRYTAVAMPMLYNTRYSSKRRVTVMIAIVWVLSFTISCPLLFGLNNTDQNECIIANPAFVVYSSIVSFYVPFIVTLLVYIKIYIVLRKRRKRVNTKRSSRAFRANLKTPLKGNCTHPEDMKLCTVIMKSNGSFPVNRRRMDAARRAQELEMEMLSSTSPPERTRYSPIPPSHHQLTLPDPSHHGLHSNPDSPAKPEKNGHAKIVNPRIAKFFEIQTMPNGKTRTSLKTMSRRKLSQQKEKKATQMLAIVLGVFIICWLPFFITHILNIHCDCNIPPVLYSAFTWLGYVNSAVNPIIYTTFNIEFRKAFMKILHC

The term ED50 denotes the dose that gives a 50% effect, or the effect in half of the subjects. As to `CCCN(CCOC)[C@H]1CCc2c(ccc(O)c2O)C1` [Example 4], the EC50 is 42.7 nM on adrenergic α2 receptor [1] and 0.603 nM at dopamine D2 receptor [4]. The same molecule gave an ED50 in assay [2] of 0.006 µmol/kg. Also, the results for the Ki at Dopamine D2 receptor [3] and on Dopamine D1 receptor were 363 nM and 7080 nM, respectively.
Regarding `CCCOCCN(CCC)[C@H]1CCc2c(ccc(O)c2O)C1` [Example 7, (S)-5,6,7,8-tetrahydro-6-[[2-(propoxy)ethyl]propylamino]-1,2-naphthalenediol], at adrenergic α2 receptor [5], the EC50 stood at 148 nM. Also, the ED50 in assay [2] turned out to be 0.002 µmol/kg. At Dopamine D2 receptor [3], the “Selectivity Ratio (D1 K1/D2 K1)” value was found to be 36 and the Ki stood at 129 nM. The Ki at Dopamine D1 receptor was 4680 nM. On dopamine D2 receptor [4], the “Specificity Ratio (a2 A50/D2 A50)” value is 186 and the EC50 is 0.794 nM.
Take `CCCN(CCC1CCCCO1)[C@H]1CCc2c(ccc(O)c2O)C1` (stereo partly drawn) [Example 12]: the EC50 worked out at 199 nM on adrenergic α2 receptor [5] and 0.2 nM on dopamine D2 receptor [4]. This molecule yielded an ED50 in assay [2] of 0.030 µmol/kg. The “Selectivity Ratio (D1 K1/D2 K1)” value at Dopamine D2 receptor [3] was 224. For the same molecule, the values for the Ki on Dopamine D2 receptor [3] and on Dopamine D1 receptor were 25 nM and 5490 nM, respectively. Besides, the “Specificity Ratio (a2 A50/D2 A50)” value at dopamine D2 receptor [4] turned out to be 1000.
For the molecule `CCCCOCCN(CCC)[C@H]1CCc2c(ccc(O)c2O)C1` [Example 8, (S)-6-[[2-(butoxy)ethyl]propylamino]-5,6,7,8-tetrahydro-1,2-naphthalenediol], the figures for the EC50 on adrenergic α2 receptor [5] and at dopamine D2 receptor [4] were 107 nM and 0.269 nM, respectively. Also, the ED50 in assay [2] is 0.004 µmol/kg. The “Selectivity Ratio (D1 K1/D2 K1)” value at Dopamine D2 receptor [3] is reported as 52. Also, the Ki stood at 112 nM on Dopamine D2 receptor [3] and 5890 nM on Dopamine D1 receptor. In addition, the “Specificity Ratio (a2 A50/D2 A50)” value at dopamine D2 receptor [4] is on record as 398.
For the molecule `CCCN(CCCOC(C)C)[C@H]1CCc2c(ccc(O)c2O)C1` [Example 13], the EC50 on adrenergic α2 receptor [5] came to 93.3 nM. In assay [2], the ED50 came to 0.006 µmol/kg. In addition, on Dopamine D2 receptor [3], the “Selectivity Ratio (D1 K1/D2 K1)” value was 113 and the Ki was 51 nM. The Ki on Dopamine D1 receptor worked out at 5750 nM. Besides, on dopamine D2 receptor [4], the “Specificity Ratio (a2 A50/D2 A50)” value turned out to be 914 and the EC50 is 0.102 nM.
As to `CCCN(CCOCC)[C@H]1CCc2c(ccc(O)c2O)C1` [Example 2, (S)-6-[[2-(ethoxy)ethyl]propylamino]-5,6,7,8-tetrahydro-1,2-naphthalenediol], the EC50 on adrenergic α2 receptor [5] was 18.6 nM. In assay [2], this molecule showed an ED50 of 0.004 µmol/kg. In addition, at Dopamine D2 receptor [3], the “Selectivity Ratio (D1 K1/D2 K1)” value is 20 and the Ki worked out at 316 nM. The Ki on Dopamine D1 receptor amounted to 6310 nM. Moreover, at dopamine D2 receptor [4], the “Specificity Ratio (a2 A50/D2 A50)” value is reported as 45 and the EC50 stood at 0.417 nM.
For the molecule `CCCN(CCC1CCCCO1)[C@H]1CCc2c(O)cccc2C1` (stereo partly drawn) [Example 23], the EC50 on adrenergic α2 receptor [5] is > 10000 nM; on dopamine D2 receptor [4] it was 0.437 nM. The same molecule displayed an ED50 in assay [2] of 0.010 µmol/kg. Moreover, the “Selectivity Ratio (D1 K1/D2 K1)” value on Dopamine D2 receptor [3] worked out at 68. Further, the Ki on Dopamine D2 receptor [3] is 110 nM; on Dopamine D1 receptor it was 7410 nM. Moreover, on dopamine D2 receptor [4], the “Specificity Ratio (a2 A50/D2 A50)” value is listed as > 22900.
As for `CCCN(CCOC1CCCC1)[C@H]1CCc2c(O)cccc2C1` [Example 16], the results for the EC50 at adrenergic α2 receptor [5] and at dopamine D2 receptor [4] were > 10000 nM and 0.513 nM, respectively. In assay [2], this molecule gave an ED50 of 0.090 µmol/kg. In addition, the “Selectivity Ratio (D1 K1/D2 K1)” value on Dopamine D2 receptor [3] turned out to be 129. In addition, the Ki came to 62 nM on Dopamine D2 receptor [3] and 7940 nM at Dopamine D1 receptor. The “Specificity Ratio (a2 A50/D2 A50)” value at dopamine D2 receptor [4] is > 19500.
Take `CCCN(CC1CCOC1)[C@H]1CCc2c(O)cccc2C1.Cl` (stereo partly drawn) [Example 21, (6S)-5,6,7,8-tetrahydro-6-[[(tetrahydro-3-furanyl)methyl]propylamino]-1-naphthalenol, hydrochloride]: the EC50 at adrenergic α2 receptor [5] is 275 nM. The molecule further displayed an ED50 in assay [2] of 0.009 µmol/kg. For the same molecule, at Dopamine D2 receptor [3], the “Selectivity Ratio (D1 K1/D2 K1)” value is given as 24 and the Ki was 151 nM. Moreover, the Ki at Dopamine D1 receptor was found to be 3630 nM. In addition, on dopamine D2 receptor [4], the “Specificity Ratio (a2 A50/D2 A50)” value turned out to be 282 and the EC50 was 0.977 nM.
As to `CCCN(CC1CCCO1)[C@H]1CCc2c(O)cccc2C1` (stereo partly drawn) [Example 22], the EC50 at adrenergic α2 receptor [5] came to 3550 nM. Also, the ED50 in assay [2] was found to be 0.030 µmol/kg. Also, at Dopamine D2 receptor [3], the “Selectivity Ratio (D1 K1/D2 K1)” value was 11 and the Ki was found to be 1510 nM. Besides, on Dopamine D1 receptor, the Ki came out at 16200 nM. Moreover, on dopamine D2 receptor [4], the “Specificity Ratio (a2 A50/D2 A50)” value came out at 1620 and the EC50 stood at 2.19 nM.
As for `CCCCCOCCN(CCC)[C@H]1CCc2c(ccc(O)c2O)C1` [Example 10], the EC50 was 93.3 nM on adrenergic α2 receptor [5] and 0.093 nM at dopamine D2 receptor [4]. In assay [2], this molecule had an ED50 of 0.030 µmol/kg. Moreover, the “Selectivity Ratio (D1 K1/D2 K1)” value on Dopamine D2 receptor [3] was 46. Moreover, the values for the Ki at Dopamine D2 receptor [3] and at Dopamine D1 receptor were 54 nM and 2450 nM, respectively. Further, at dopamine D2 receptor [4], the “Specificity Ratio (a2 A50/D2 A50)” value stood at 1000.
In the case of `CCCN(CCOCC1CC1)[C@H]1CCc2c(ccc(O)c2O)C1` [Example 3], the EC50 is 195 nM at adrenergic α2 receptor [5] and 0.105 nM at dopamine D2 receptor [4]. The ED50 in assay [2] stood at 0.007 µmol/kg. For the same molecule, the “Selectivity Ratio (D1 K1/D2 K1)” value at Dopamine D2 receptor [3] is 74. Moreover, the results for the Ki at Dopamine D2 receptor [3] and on Dopamine D1 receptor were 65 nM and 4790 nM, respectively. Moreover, on dopamine D2 receptor [4], the “Specificity Ratio (a2 A50/D2 A50)” value is on record as 1860.
In the case of `CCCN(CCOC1CC1)[C@H]1CCc2c(O)cccc2C1` [Example 17], the EC50 is > 10000 nM on adrenergic α2 receptor [5] and 0.589 nM on dopamine D2 receptor [4]. This molecule also registered an ED50 in assay [2] of 0.009 µmol/kg. Further, the “Selectivity Ratio (D1 K1/D2 K1)” value on Dopamine D2 receptor [3] was determined as 21. In addition, the Ki at Dopamine D2 receptor [3] came out at 468 nM; at Dopamine D1 receptor, 9770 nM. In addition, the “Specificity Ratio (a2 A50/D2 A50)” value at dopamine D2 receptor [4] was > 17000.
On to `CCCN(CC1CCOC1)[C@H]1CCc2c(ccc(O)c2O)C1` (stereo partly drawn) [Example 15], for which the EC50 on adrenergic α2 receptor [5] was determined as 16.6 nM. In assay [2], this molecule returned a median effective dose (ED50) of 0.009 µmol/kg. Further, on Dopamine D2 receptor [3], the “Selectivity Ratio (D1 K1/D2 K1)” value is listed as 1 and the Ki turned out to be 1100 nM. The Ki at Dopamine D1 receptor was 1100 nM. In addition, on dopamine D2 receptor [4], the “Specificity Ratio (a2 A50/D2 A50)” value stood at 118 and the EC50 was found to be 0.141 nM.
